Experimental data: US8008298B2, “Pyrrolopyrazine kinase inhibitors” (Roche Palo Alto, priority 2008, dated 2011)

| melting point [°C] | SMILES |
| --- | --- |
| 204 to 206 | CN(C)C1CCN(c2cccc(-c3cnc4[nH]cc(C(=O)C(C)(C)C)c4n3)c2)C1 (centres unmarked) [Example 202, 1-{2-[3-(3-Dimethylamino-pyrrolidin-1-yl)-phenyl]-5H-pyrrolo[2,3-b]pyrazin-7-yl}-2,2-dimethyl-propan-1-one] |
| 200 to 202 | CCNC1CCN(c2cccc(-c3cnc4[nH]cc(C(=O)C(C)(C)C)c4n3)c2)C1 (centres unmarked) [Example 208, 1-{2-[3-(3-Ethylamino-pyrrolidin-1-yl)-phenyl]-5H-pyrrolo[2,3-b]pyrazin-7-yl}-2,2-dimethyl-propan-1-one] |
| 198 to 200 | COC(=O)C1(C)CCN(c2cccc(-c3cnc4[nH]cc(C(=O)C(C)(C)C)c4n3)c2)C1 (centres unmarked) [Example 209, 1-{3-[7-(2,2-Dimethyl-propionyl)-5H-pyrrolo[2,3-b]pyrazin-2-yl]-phenyl}-3-methyl-pyrrolidine-3-carboxylic acid methyl ester] |
| 252 to 254 | CNC(=O)C1(C)CCN(c2cccc(-c3cnc4[nH]cc(C(=O)C(C)(C)C)c4n3)c2)C1 (centres unmarked) [Example 210, 1-{3-[7-(2,2-Dimethyl-propionyl)-5H-pyrrolo[2,3-b]pyrazin-2-yl]-phenyl}-3-methyl-pyrrolidine-3-carboxylic acid methylamide] |
| 216 to 218 | CC1(N)CCN(c2cccc(-c3cnc4[nH]cc(C(=O)C(C)(C)C)c4n3)c2)C1 (centres unmarked) [Example 212, 1-{2-[3-(3-Amino-3-methyl-pyrrolidin-1-yl)-phenyl]-5H-pyrrolo[2,3-b]pyrazin-7-yl}-2,2-dimethyl-propan-1-one] |
| 238 to 240 | COc1cc(-c2cnc3[nH]cc(C(=O)C4(C)CCC(=O)C4)c3n2)cc(OC)c1OC (centres unmarked) [Example 214, 3-Methyl-3-[2-(3,4,5-trimethoxy-phenyl)-5H-pyrrolo[2,3-b]pyrazine-7-carbonyl]-cyclopentanone] |
| 200 to 202 | CC1(C(=O)c2c[nH]c3ncc(-c4cccc(N5CCCC5)c4)nc23)CC[C@@H]2CCC[C@@H]21 (stereo partly drawn) [Example 215, ((3aS,6aS)-1-Methyl-octahydro-pentalen-1-yl)-[2-(3-pyrrolidin-1-yl-phenyl)-5H-pyrrolo[2,3-b]pyrazin-7-yl]-methanone] |
| 239 to 241 | CC(C)(C)C(=O)c1c[nH]c2ncc(-c3cccc(N)c3)nc12 [Example 226, 1-[2-(3-Amino-phenyl)-5H-pyrrolo[2,3-b]pyrazin-7-yl]-2,2-dimethyl-propan-1-one] |
| 189 to 191 | CCNc1cccc(-c2cnc3[nH]cc(C(=O)C(C)(C)C)c3n2)c1 [Example 227, 1-[2-(3-Ethylamino-phenyl)-5H-pyrrolo[2,3-b]pyrazin-7-yl]-2,2-dimethyl-propan-1-one] |
| 249 to 250 | CC(=O)Nc1cccc(-c2cnc3[nH]cc(C(=O)C(C)(C)C)c3n2)c1 [Example 228, N-{3-[7-(2,2-Dimethyl-propionyl)-5H-pyrrolo[2,3-b]pyrazin-2-yl]-phenyl}-acetamide] |
| 279 to 280 | CC(C)(C)C(=O)c1c[nH]c2ncc(-c3cccc(N4CCS(=O)(=O)CC4)c3)nc12 [Example 230, 1-{2-[3-(1,1-Dioxo-1lambda*6*-thiomorpholin-4-yl)-phenyl]-5H-pyrrolo[2,3-b]pyrazin-7-yl}-2,2-dimethyl-propan-1-one] |
| 220 to 222 | CC(C)(C)C(=O)c1c[nH]c2ncc(-c3cccc(-n4cccc4)c3)nc12 [Example 232, 2,2-Dimethyl-1-[2-(3-pyrrol-1-yl-phenyl)-5H-pyrrolo[2,3-b]pyrazin-7-yl]-propan-1-one] |
| 217 to 219 | CC(C)(C)C(=O)c1c[nH]c2ncc(-c3cccc(NS(=O)(=O)c4ccccc4)c3)nc12 [Example 234, N-{3-[7-(2,2-Dimethyl-propionyl)-5H-pyrrolo[2,3-b]pyrazin-2-yl]-phenyl}-benzenesulfonamide] |
| 285 to 286 | CC(C)(C)C(=O)c1c[nH]c2ncc(-c3cccc(NS(=O)(=O)c4ccc(N)cc4)c3)nc12 [Example 235, 4-Amino-N-{3-[7-(2,2-dimethyl-propionyl)-5H-pyrrolo[2,3-b]pyrazin-2-yl]-phenyl}-benzenesulfonamide] |
| 228 to 230 | CC(C)(C)C(=O)c1c[nH]c2ncc(-c3cccc(NC4=NCCN4)c3)nc12 [Example 236, 1-{2-[3-(4,5-Dihydro-1H-imidazol-2-ylamino)-phenyl]-5H-pyrrolo[2,3-b]pyrazin-7-yl}-2,2-dimethyl-propan-1-one] |
| 248 to 249 | CC(C)(C)C(=O)c1c[nH]c2ncc(-c3cccc(C#N)c3)nc12 [Example 237, 3-[7-(2,2-Dimethyl-propionyl)-5H-pyrrolo[2,3-b]pyrazin-2-yl]-benzonitrile] |
| 210 to 212 | COc1cc(-c2cnc3[nH]cc(C(=O)N4CCCC4)c3n2)cc(OC)c1OC [Example 240, Pyrrolidin-1-yl-[2-(3,4,5-trimethoxy-phenyl)-5H-pyrrolo[2,3-b]pyrazin-7-yl]-methanone] |
| 236 to 237 | CCOc1cc(-c2cnc3[nH]cc(C(=O)C(C)(C)C)c3n2)cc(N2CCCC2)c1 [Example 262, 1-[2-(3-Ethoxy-5-pyrrolidin-1-yl-phenyl)-5H-pyrrolo[2,3-b]pyrazin-7-yl]-2,2-dimethyl-propan-1-one] |

| melting point [°C] | SMILES |
| --- | --- |
| 230 to 232 | CC(C)(C)C(=O)c1c[nH]c2ncc(-c3cc(OCCS(C)(=O)=O)cc(N4CCCC4)c3)nc12 [Example 267, 1-{2-[3-(2-Methanesulfonyl-ethoxy)-5-pyrrolidin-1-yl-phenyl]-5H-pyrrolo[2,3-b]pyrazin-7-yl}-2,2-dimethyl-propan-1-one] |
| 259 to 260 | COc1cc(-c2cnc3[nH]cc(C(=O)C(C)(C)C)c3n2)cc(N2CC[S+]([O-])CC2)c1 [Example 269, 1-{2-[3-Methoxy-5-(1-oxo-1lambda*4*-thiomorpholin-4-yl)-phenyl]-5H-pyrrolo[2,3-b]pyrazin-7-yl}-2,2-dimethyl-propan-1-one] |
| 257 to 258 | Cn1nccc1-c1ccc(-c2cnc3[nH]cc(C(=O)C(C)(C)C)c3n2)cc1 [Example 281, 2,2-Dimethyl-1-{2-[4-(2-methyl-2H-pyrazol-3-yl)-phenyl]-5H-pyrrolo[2,3-b]pyrazin-7-yl}-propan-1-one] |
| 260 to 262 | CC(C)(C)C(=O)c1c[nH]c2ncc(-c3cccc(N4CC5(COC5)C4)c3)nc12 [Example 282, 2,2-dimethyl-1-{2-[3-(2-oxa-6-aza-spiro[3.3]hept-6-yl)-phenyl]-5H-pyrrolo[2,3-b]pyrazin-7-yl}-propan-1-one] |
| 215 to 217 | CC1(C(=O)c2c[nH]c3ncc(-c4cccc(N5CCCC5=O)c4)nc23)CCCCC1 [Example 283, 1-{3-[7-(1-methyl-cyclohexanecarbonyl)-5H-pyrrolo[2,3-b]pyrazin-2-yl]-phenyl}-pyrrolidin-2-one] |
| 186 to 187 | COc1ccc(F)cc1-c1cnc2[nH]cc(C(=O)CC(C)C)c2n1 [Example I-5, 1-[2-(5-Fluoro-2-methoxy-phenyl)-5H-pyrrolo[2,3-b]pyrazin-7-yl]-3-methyl-butan-1-one] |
| 260 to 261 | CC(C)CC(=O)c1c[nH]c2ncc(-c3cccc(N4CCCC4)c3)nc12 [Example I-6, 3-Methyl-1-[2-(3-pyrrolidin-1-yl-phenyl)-5H-pyrrolo[2,3-b]pyrazin-7-yl]-butan-1-one] |
| 243 to 244 | CNC(=O)c1cccc(-c2cnc3[nH]cc(C(=O)CC(C)C)c3n2)c1 [Example I-9, N-Methyl-3-[7-(3-methyl-butyryl)-5H-pyrrolo[2,3-b]pyrazin-2-yl]-benzamide] |
| 198.4 to 202.7 | CC(C)(C)C(=O)c1c[nH]c2ncc(-c3ccc(OCCN4CCOCC4)cc3)nc12 [Example I-40, 2,2-Dimethyl-1-{2-[4-(2-morpholin-4-yl-ethoxy)-phenyl]-5H-pyrrolo[2,3-b]pyrazin-7-yl}-propan-1-one] |
| 152.9 to 154.7 | CC(C)(C)C(=O)c1c[nH]c2ncc(-c3cccc(OCCN4CCOCC4)c3)nc12 [Example I-41, 2,2-Dimethyl-1-{2-[3-(2-morpholin-4-yl-ethoxy)-phenyl]-5H-pyrrolo[2,3-b]pyrazin-7-yl}-propan-1-one] |
| 215.2 to 215.8 | CC(C)(C)OC(=O)N1CCN(c2cccc(-c3cnc4[nH]cc(C(=O)C(C)(C)C)c4n3)c2)CC1 [Example I-44, 4-{3-[7-(2,2-Dimethyl-propionyl)-5H-pyrrolo[2,3-b]pyrazin-2-yl]-phenyl}-piperazine-1-carboxylic acid tert-butyl ester] |
| 234 to 246 | CC(C)(C)C(=O)c1c[nH]c2ncc(-c3ccc(N4CCNCC4)cc3)nc12 [Example I-45, 2,2-Dimethyl-1-[2-(4-piperazin-1-yl-phenyl)-5H-pyrrolo[2,3-b]pyrazin-7-yl]-propan-1-one] |
| 216 to 222 | CC(C)(C)C(=O)c1c[nH]c2ncc(-c3cccc(N4CCNCC4)c3)nc12 [Example I-46, 2,2-Dimethyl-1-[2-(3-piperazin-1-yl-phenyl)-5H-pyrrolo[2,3-b]pyrazin-7-yl]-propan-1-one] |
| 266 to 267 | CC(=O)N1CCN(c2ccc(-c3cnc4[nH]cc(C(=O)C(C)(C)C)c4n3)cc2)CC1 [Example I-99, 1-{2-[4-(4-Acetyl-piperazin-1-yl)-phenyl]-5H-pyrrolo[2,3-b]pyrazin-7-yl}-2,2-dimethyl-propan-1-one] |
| 238 to 239 | CC(=O)N1CCN(c2cccc(-c3cnc4[nH]cc(C(=O)C(C)(C)C)c4n3)c2)CC1 [Example I-100, 1-{2-[3-(4-Acetyl-piperazin-1-yl)-phenyl]-5H-pyrrolo[2,3-b]pyrazin-7-yl}-2,2-dimethyl-propan-1-one] |
| 219.3 to 221.1 | CC(C)(C)C(=O)c1c[nH]c2ncc(-c3cccc(-n4cccn4)c3)nc12 [Example I-115, 2,2-Dimethyl-1-[2-(3-pyrazol-1-yl-phenyl)-5H-pyrrolo[2,3-b]pyrazin-7-yl]-propan-1-one] |
| 277 to 278 | CC(C)(C)C(=O)c1c[nH]c2ncc(-c3cccc(-c4ccn[nH]4)c3)nc12 [Example I-126, 2,2-Dimethyl-1-{2-[3-(2H-pyrazol-3-yl)-phenyl]-5H-pyrrolo[2,3-b]pyrazin-7-yl}-propan-1-one] |
